From ChEMBL document CHEMBL5465560, “Selectivity Literature for EUbOPEN Chemogenomic Library” (2024)

Columns and labels:
[1] = target: T1, Serine/threonine-protein kinase Sgk2 (Homo sapiens) (UniProt Q9HBY8); test: Selectivity interaction (KinomeScan (DiscoverX)) EUB0001049a SGK2; conditions: at 1 µM
T1 sequence (whole entry): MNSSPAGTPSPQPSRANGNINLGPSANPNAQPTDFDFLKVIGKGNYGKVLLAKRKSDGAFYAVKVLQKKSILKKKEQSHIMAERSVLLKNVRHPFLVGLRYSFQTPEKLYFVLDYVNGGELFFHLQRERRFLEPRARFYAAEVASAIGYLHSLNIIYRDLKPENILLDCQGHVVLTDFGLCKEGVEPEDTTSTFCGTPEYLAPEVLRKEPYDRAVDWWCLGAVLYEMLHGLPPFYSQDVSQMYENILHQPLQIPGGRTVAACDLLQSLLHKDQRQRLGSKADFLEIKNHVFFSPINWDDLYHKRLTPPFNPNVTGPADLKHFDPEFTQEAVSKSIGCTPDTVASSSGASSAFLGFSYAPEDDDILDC

[2] = target: Tyrosine-protein kinase JAK1 (Homo sapiens, UniProt P23458); test: Selectivity interaction (KinomeScan (DiscoverX)) EUB0001049a JAK1; conditions: at 1 µM
[3] = target: Mitogen-activated protein kinase 3 (Homo sapiens, UniProt P27361); test: Selectivity interaction (Kinase panel (KiNativ target engagement assay in Jurkat cells)) EUB0001635a MAPK3; format: cell-based; conditions: Selectivity number of off-targets 0.0, Selectivity number of targets 233.0, Source Knowledge https://www.sciencedirect.com/science/article/pii/S2451945619300674?via%3Dihub, at 1 µM
[4] = target: T2, Dual serine/threonine and tyrosine protein kinase (Homo sapiens) (UniProt Q6XUX3); test: Selectivity interaction (KinomeScan (DiscoverX)) EUB0000595a DSTYK; conditions: at 10 µM
T2 sequence (whole entry): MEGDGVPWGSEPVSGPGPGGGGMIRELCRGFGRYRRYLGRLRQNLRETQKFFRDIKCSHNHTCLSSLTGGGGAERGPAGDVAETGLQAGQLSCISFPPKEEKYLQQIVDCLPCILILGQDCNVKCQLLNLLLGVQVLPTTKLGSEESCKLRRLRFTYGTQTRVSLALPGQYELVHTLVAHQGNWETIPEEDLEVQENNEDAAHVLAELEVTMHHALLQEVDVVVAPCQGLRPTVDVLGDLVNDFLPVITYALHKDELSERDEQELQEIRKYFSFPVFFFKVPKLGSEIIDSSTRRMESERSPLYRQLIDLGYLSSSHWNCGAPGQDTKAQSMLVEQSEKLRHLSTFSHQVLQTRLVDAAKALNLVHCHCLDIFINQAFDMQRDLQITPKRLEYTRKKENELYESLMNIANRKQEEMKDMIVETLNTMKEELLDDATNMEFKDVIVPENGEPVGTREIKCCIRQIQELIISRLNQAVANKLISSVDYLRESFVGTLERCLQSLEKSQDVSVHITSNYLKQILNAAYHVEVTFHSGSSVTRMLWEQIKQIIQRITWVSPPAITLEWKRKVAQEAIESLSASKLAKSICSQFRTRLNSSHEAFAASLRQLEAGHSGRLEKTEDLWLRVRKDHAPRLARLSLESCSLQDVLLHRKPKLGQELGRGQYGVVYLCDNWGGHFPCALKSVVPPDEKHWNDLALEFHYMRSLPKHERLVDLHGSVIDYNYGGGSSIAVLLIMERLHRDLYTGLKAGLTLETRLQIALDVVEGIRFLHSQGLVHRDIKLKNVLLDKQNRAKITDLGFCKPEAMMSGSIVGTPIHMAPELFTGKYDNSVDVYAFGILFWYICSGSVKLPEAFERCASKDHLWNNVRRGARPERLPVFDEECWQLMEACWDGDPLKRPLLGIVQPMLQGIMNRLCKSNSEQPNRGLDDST

[5] = target: RAC-beta serine/threonine-protein kinase (Homo sapiens) (UniProt P31751); test: Selectivity interaction (KinomeScan (DiscoverX)) EUB0000092b AKT2; conditions: at 10 µM
[6] = target: Serine/threonine-protein kinase 10 (Homo sapiens) (UniProt O94804); test: Selectivity interaction (KinomeScan (DiscoverX)) EUB0000618a STK10; conditions: at 10 µM
[7] = target: T3, Mitogen-activated protein kinase kinase kinase 15 (Homo sapiens) (UniProt Q6ZN16); test: Selectivity interaction (KinomeScan (DiscoverX)) EUB0001619a MAP3K15; conditions: at 1 µM
T3 sequence (whole entry): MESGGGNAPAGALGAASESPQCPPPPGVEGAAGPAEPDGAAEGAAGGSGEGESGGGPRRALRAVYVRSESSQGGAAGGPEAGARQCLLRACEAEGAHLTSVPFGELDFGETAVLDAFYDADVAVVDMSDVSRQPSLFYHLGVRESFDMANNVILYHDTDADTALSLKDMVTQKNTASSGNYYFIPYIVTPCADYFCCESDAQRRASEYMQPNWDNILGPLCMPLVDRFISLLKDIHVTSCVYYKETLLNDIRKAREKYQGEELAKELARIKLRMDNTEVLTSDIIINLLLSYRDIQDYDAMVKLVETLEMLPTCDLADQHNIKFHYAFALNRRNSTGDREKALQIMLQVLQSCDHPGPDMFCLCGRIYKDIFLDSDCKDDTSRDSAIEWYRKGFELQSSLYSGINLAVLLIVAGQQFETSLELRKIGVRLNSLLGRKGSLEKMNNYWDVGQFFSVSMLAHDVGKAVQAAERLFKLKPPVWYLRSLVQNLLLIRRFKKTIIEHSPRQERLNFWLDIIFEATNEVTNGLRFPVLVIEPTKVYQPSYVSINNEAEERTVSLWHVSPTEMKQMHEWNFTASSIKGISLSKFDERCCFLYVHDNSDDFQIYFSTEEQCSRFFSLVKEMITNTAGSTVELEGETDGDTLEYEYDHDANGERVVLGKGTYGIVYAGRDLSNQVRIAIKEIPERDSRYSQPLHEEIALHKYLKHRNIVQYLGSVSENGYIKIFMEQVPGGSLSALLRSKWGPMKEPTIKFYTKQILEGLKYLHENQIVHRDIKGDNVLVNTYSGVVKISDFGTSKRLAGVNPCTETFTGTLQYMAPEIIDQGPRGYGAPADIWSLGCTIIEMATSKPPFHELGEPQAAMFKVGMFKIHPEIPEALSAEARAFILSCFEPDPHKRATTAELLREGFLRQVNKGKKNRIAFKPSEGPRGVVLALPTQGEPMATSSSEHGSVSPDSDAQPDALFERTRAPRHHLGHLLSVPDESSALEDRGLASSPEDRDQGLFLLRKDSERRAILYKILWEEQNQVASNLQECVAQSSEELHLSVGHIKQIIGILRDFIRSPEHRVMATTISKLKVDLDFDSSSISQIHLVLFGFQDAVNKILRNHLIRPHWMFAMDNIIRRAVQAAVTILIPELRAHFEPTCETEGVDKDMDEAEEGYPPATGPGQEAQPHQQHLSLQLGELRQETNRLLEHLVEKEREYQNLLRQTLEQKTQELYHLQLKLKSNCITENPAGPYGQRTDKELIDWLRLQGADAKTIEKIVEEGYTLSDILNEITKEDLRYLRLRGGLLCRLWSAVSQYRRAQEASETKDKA

Tyrosine-protein kinase JAK1, sequence (P23458 whole entry): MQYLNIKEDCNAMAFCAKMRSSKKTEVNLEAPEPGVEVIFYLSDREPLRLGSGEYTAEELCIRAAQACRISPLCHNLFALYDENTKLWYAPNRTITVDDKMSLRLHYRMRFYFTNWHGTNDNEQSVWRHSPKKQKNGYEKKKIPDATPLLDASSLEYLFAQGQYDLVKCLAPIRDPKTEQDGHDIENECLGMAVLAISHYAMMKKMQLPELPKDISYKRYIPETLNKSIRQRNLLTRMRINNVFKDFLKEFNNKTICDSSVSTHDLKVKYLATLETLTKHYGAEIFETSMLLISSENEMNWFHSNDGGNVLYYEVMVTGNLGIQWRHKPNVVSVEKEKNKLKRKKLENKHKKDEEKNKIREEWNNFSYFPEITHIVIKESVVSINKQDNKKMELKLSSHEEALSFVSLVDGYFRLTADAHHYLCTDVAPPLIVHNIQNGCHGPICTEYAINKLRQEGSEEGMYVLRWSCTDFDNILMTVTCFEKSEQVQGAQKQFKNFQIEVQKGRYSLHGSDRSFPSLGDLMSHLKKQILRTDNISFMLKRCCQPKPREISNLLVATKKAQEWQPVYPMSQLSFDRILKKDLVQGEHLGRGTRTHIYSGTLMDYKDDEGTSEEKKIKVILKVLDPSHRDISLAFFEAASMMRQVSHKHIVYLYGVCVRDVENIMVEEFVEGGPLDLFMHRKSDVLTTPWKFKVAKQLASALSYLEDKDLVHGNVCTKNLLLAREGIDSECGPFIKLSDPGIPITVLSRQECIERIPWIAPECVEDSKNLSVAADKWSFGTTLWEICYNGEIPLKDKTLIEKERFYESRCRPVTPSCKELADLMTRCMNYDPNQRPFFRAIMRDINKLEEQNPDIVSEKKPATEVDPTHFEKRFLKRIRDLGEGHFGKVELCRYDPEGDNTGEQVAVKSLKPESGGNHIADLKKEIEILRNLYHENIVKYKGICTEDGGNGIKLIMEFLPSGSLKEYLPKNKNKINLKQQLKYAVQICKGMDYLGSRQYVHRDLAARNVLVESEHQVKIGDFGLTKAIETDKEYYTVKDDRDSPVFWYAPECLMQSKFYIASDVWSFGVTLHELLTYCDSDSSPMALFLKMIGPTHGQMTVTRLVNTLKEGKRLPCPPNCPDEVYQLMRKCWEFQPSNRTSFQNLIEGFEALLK
RAC-beta serine/threonine-protein kinase (Homo sapiens), sequence (P31751 whole entry): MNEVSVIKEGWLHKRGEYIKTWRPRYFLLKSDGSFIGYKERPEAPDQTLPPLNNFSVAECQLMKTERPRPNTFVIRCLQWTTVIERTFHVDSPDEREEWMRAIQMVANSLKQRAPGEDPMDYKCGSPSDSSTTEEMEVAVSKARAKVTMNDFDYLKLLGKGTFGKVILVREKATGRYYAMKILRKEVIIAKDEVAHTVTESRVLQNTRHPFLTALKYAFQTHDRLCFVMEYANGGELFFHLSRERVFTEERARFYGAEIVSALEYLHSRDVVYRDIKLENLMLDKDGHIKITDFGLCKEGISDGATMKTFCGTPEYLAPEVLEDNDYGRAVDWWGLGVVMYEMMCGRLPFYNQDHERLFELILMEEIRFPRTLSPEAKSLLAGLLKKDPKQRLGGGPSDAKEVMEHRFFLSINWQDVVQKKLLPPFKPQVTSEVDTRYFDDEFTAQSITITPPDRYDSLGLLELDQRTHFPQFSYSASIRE
Mitogen-activated protein kinase 3, sequence (P27361 whole entry): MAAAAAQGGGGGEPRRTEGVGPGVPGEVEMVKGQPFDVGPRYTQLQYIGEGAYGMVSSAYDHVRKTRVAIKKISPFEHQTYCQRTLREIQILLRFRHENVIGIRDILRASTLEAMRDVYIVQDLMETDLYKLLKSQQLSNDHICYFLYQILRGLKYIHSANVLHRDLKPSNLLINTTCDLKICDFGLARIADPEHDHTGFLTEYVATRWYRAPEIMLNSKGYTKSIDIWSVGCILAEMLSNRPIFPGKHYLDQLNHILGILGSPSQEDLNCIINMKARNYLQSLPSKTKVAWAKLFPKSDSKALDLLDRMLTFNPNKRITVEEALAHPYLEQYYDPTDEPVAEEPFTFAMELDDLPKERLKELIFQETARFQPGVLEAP
Serine/threonine-protein kinase 10 (Homo sapiens), sequence (O94804 whole entry, looked up): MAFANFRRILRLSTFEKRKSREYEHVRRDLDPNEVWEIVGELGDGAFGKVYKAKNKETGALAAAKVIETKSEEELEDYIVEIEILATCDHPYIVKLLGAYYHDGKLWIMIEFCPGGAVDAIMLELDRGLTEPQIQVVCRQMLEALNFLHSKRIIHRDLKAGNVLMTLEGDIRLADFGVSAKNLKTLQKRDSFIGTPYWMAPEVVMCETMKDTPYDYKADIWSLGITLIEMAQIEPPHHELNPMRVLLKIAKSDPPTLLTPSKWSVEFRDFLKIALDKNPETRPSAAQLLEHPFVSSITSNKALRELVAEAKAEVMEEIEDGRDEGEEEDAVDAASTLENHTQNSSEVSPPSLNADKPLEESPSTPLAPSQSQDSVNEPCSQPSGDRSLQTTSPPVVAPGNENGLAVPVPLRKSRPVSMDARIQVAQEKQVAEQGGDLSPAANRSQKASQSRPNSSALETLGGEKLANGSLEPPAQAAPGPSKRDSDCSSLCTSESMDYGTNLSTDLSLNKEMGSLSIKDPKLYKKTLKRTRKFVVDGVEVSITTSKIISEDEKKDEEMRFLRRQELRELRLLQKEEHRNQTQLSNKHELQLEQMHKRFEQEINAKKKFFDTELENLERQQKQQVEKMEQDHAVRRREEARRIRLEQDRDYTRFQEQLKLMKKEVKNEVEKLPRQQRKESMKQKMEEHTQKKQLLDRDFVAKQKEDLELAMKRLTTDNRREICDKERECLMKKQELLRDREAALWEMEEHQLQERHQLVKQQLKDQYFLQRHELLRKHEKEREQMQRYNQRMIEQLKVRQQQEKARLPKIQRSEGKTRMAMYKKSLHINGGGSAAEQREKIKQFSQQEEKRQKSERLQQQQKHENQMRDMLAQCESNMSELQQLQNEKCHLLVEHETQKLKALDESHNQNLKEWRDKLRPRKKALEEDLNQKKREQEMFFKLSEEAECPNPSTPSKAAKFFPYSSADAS

COc1cc(Nc2nc(C)cc(-c3cnn4nc(OC)ccc34)n2)cc(C(F)(F)F)c1
% of control [1]: 78% | % of control [2]: 85%

C=CC(=O)Nc1ccc(C(=O)Nc2[nH]nc3c2CN(C(=O)N[C@H](CN(C)C)c2ccccc2)C3(C)C)cc1
% of engagement [3]: -1.4%

COCC(=O)NC/C=C/c1ccc2ncnc(Nc3ccc(Oc4ccc(C)nc4)c(C)c3)c2c1 [CP-724714]
% of control [4]: 75%

CCC(=O)N1CCN(c2ccc(-n3c(=O)ccc4cnc5ccc(-c6cnc7ccccc7c6)cc5c43)cc2C(F)(F)F)CC1
% of control [5]: 100%

O[C@H]1CC[C@H](Nc2ncc3nc(Nc4c(F)cc(F)cc4F)n([C@H]4CCOC4)c3n2)CC1
% of control [6]: 97%

N#Cc1cccc(-c2c[nH]c3ncnc(N4CCOCC4)c23)c1
% of control [7]: 74%
